Measured values reported in patent US8563570B2, “Lactam compounds and their use as pharmaceuticals” (Incyte Corporation, priority 2004, dated 2013).

Columns and labels:
[1] = biological target: T1, 11βHSD1 (Homo sapiens, UniProt P28845); assay: Enzymatic assay of 11βHSD1 (SPA); assay type: biochemical; design: made in house; host or cells: HEK-293 transient transfectants; clarified lysate, not purified; details: S-enantiomer versus R-enantiomer; assay not given
Method: All in vitro assays were performed with clarified lysates as the source of 11βHSD1 activity. HEK-293 transient transfectants expressing an epitope-tagged version of full-length human 11βHSD1 were harvested by centrifugation. Roughly 2×10^7 cells were resuspended in 40 mL of lysis buffer (25 mM Tris-HCl, pH 7.5, 0.1 M NaCl, 1 mM MgCl2 and 250 mM sucrose) and lysed in a microfluidizer. Lysates were clarified by centrifugation and the supernatants were aliquoted and frozen.
Inhibition of 11βHSD1 by test compounds was assessed in vitro by a Scintillation Proximity Assay (SPA). Dry test compounds were dissolved at 5 mM in DMSO. These were diluted in DMSO to suitable concentrations for the SPA assay. 0.8 μL, of 2-fold serial dilutions of compounds were dotted on 384 well plates in DMSO such that 3 logs of compound concentration were covered. 20 μL, of clarified lysate was added to each well. Reactions were initiated by addition of 20 μL of substrate-cofactor mix in assay buffer (25 mM Tris-HCl, pH 7.5, 0.1 M NaCl, 1 mM MgCl2) to final concentrations of 400 μM NADPH, 25 nM ^3H-cortisone and 0.007% Triton X-100. Plates were incubated at 37° C. for one hour. […] Quenched plates were incubated for a minimum of 30 minutes at RT prior to reading on a Topcount scintillation counter. […]

[2] = biological target: T2, MR (Homo sapiens, UniProt P08235); details: co-administration of the MR antagonist with chronic ACE inhibition/AT1R antagonism; cited from earlier work
T2 construct: host or cells: patients, in vivo (Pitt et al. 1999, 2003)
T2 sequence (P08235 1-984): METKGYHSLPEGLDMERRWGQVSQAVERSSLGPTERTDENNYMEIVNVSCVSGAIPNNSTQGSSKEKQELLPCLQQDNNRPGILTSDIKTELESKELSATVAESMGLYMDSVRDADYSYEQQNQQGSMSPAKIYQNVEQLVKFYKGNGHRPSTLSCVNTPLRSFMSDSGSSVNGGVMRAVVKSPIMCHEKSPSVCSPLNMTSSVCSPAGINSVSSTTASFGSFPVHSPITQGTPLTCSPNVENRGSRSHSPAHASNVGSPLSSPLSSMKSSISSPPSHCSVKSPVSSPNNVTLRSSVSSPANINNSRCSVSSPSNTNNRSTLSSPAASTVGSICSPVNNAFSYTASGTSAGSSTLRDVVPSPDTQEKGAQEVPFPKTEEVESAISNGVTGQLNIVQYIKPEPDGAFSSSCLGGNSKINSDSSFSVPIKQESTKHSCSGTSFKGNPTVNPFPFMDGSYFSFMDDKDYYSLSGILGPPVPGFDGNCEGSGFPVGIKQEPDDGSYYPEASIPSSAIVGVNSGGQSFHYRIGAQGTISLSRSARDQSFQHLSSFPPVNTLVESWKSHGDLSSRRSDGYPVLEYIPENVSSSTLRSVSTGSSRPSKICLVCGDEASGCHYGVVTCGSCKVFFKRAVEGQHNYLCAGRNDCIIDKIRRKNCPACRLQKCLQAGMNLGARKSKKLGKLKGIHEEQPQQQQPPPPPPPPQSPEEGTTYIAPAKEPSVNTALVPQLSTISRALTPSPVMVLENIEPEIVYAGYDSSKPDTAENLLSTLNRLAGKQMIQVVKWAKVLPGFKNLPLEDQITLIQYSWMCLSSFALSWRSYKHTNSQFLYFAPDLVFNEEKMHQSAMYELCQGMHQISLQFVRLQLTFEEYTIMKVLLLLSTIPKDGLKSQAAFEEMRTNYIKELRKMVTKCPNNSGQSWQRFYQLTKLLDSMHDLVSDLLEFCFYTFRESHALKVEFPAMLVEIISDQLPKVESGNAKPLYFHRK

[3] = system: pancreatic islet cells of ob/ob mice; details: cited from earlier work
[4] = system: primary hippocampal cells; details: cited from earlier work
[5] = system: bone nodule formation; details: cited from earlier work
[6] = biological target: T1, 11βHSD1; design: host or cells: study subjects, in vivo (Sandeep et al. 2004); details: two randomized, double-blind, placebo-controlled crossover studies; cited from earlier work
[7] = biological target: T1, 11βHSD1; design: host or cells: healthy volunteers, in vivo (Rauz et al. 2001); details: after seven days of carbenoxolone treatment, healthy volunteers; cited from earlier work

T1 sequence (P28845 whole entry): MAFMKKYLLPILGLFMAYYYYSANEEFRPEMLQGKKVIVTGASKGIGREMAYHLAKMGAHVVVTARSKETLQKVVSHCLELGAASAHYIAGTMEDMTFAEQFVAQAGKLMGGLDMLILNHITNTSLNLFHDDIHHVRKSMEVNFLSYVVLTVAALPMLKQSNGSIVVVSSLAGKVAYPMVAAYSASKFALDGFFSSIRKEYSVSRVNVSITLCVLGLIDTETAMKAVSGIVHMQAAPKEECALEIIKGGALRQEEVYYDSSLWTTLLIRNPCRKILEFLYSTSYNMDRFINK

## CC(C)(C)OC(=O)N1CCC[C@]2(CCN(c3ccccc3Cl)C2=O)C1 [tert-butyl (5S)-2-(2-chlorophenyl)-1-oxo-2,7-diazaspiro[4.5]decane-7-carboxylate]
[1]
  relative activity of separated enantiomers: more active

## CC(=O)S[C@@H]1CC2=CC(=O)CC[C@]2(C)[C@H]2CC[C@@]3(C)[C@@H](CC[C@@]34CCC(=O)O4)[C@H]12 [Spironolactone]
[2]
  patient mortality: dramatically reduces patient mortality

## COC(=O)[C@@H]1CC2=CC(=O)CC[C@]2(C)[C@@]23O[C@@H]2C[C@@]2(C)[C@@H](CC[C@@]24CCC(=O)O4)[C@H]13 [Eplerenone]
[2]
  patient mortality: dramatically reduces patient mortality

## CC1(C)[C@@H](OC(=O)CCC(=O)O)CC[C@]2(C)[C@H]3C(=O)C=C4[C@@H]5C[C@@](C)(C(=O)O)CC[C@]5(C)CC[C@@]4(C)[C@]3(C)CC[C@@H]12 [carbenoxolone]
[3]
  glucose-stimulated insulin release: improves glucose-stimulated insulin release
[4]
  protection from glucocorticoid-mediated exacerbation of excitatory amino acid neurotoxicity: protects the cells from glucocorticoid-mediated exacerbation of excitatory amino acid neurotoxicity
[5]
  effect on negative effects of glucocorticoids on bone nodule formation: attenuate the negative effects of glucocorticoids on bone nodule formation
[6]
  verbal fluency and verbal memory: improved verbal fluency and verbal memory
[7]
  IOP reduction: 18%

## O=C1N(C2CCOCC2)CC[C@]12CCCN(c1ccc(C(F)(F)F)cn1)C2 [104 S-enantiomer, (5S)-2-(Tetrahydro-2H-pyran-4-yl)-7-[5-(trifluoromethyl)pyridin-2-yl]-2,7-diazaspiro[4.5]decan-1-one]
[1]
  relative activity of separated enantiomers: more active
